{"source": "patent US9511027B1", "about": "“Calcium supplement having enhanced absorption” (Delavau L.L.C., priority 2006, dated 2016)", "origin": "cited, not measured here", "data": [{"smiles": "[Ca+2]", "note": "[calcium]", "values": [{"measurement": "percent absorption", "setting": "9 to 18 year olds, Wastney et al. 1996", "value": 38, "unit": "%"}, {"measurement": "elemental calcium absorbed", "setting": "adults, basis of the AIs of 1,000 mg and 1,200 mg, Heaney et al. 1988", "value": "about 30%"}]}]}
